A melting point compilation (Tetko et al.; mined from patent text by program, amines drawn as free bases though some values may be those of a salt)

Structure (SMILES) | melting point
CN(C)C1(c2ccccc2Cl)C(=O)N(Cc2ccc(C(=O)NC(C)(C)C)cc2)c2ccc(Cl)cc21 (stereo not given) | 177 to 178 °C
CCNC(=O)C1=CSC(Cl)N1[Si](C)(C)C (stereo not given) | 101 to 103 °C
c1ccc(-n2c3c(c4ccccc42)CCNCC3)cc1 | 174 to 180 °C
CCCCNC(=S)N1CCc2cc(S(=O)(=O)N3CC(c4ccccc4)NC3=O)ccc21 (stereo not given) | 186 to 188 °C
COc1ccc(Nc2ccccc2C(C)=C(Cl)Cl)cc1OC | 94 to 96 °C
CCCCC(=O)N(Cc1ccc2c(c1)c1ccccc1n2CCc1nnn[nH]1)C(C(=O)O)C(C)C (stereo not given) | 111 to 112 °C
CC(=O)c1cc2c(cc1OCCCCCBr)OC(C(=O)OC(C)C(C)O)CC2 (stereo not given) | 80 to 83 °C
COCCOC(=O)C1=C(C)NC(C)=C(c2nnco2)C1c1cccc(Cl)c1Cl (stereo not given) | 190 to 192 °C
CNc1nc(C)c(-c2nc3ccccc3c(=O)n2-c2cccc(C)c2)s1 | > 275 °C
CCn1cc(C(=O)O)c(=O)c2cc(F)c(N3CCC(CN)C3)c(F)c21 (stereo not given) | 219 to 221 °C
CO/C=C1/C(=O)NC(=O)c2ccc(I)cc21 | 120 to 121 °C
O=C1CNC(c2cc(-c3ccsc3)cc(-c3ccsc3)c2)=NN1CC(F)(F)F | 180 to 182 °C
CC(C)NOP(=O)(O)C(C(C)C)N(CC(=O)OCCCl)C(=O)C(F)(F)F (stereo not given) | 87.5 to 89 °C
O=C(N[C@H]1CCCNC1=O)OCc1ccccc1 | 100 to 102 °C
CCCc1nc2c(N)nc3cc(OCCCCCCNC(=O)OC(C)(C)C)ccc3c2s1 | 136 to 139 °C
COc1ccc(C(=O)Nc2ccc(F)cc2)cc1NC(=S)Nc1cccc(C(=O)O)c1 | 218 to 220 °C
CC(C)CCOc1ccc([N+](=O)[O-])cc1OCCC(C)C | 44 to 47 °C
O=S(=O)(c1ccccc1)c1ccc(/C=C/C(O)(C(F)F)C(F)F)cc1 | 123 to 124 °C
Nc1nc(N)nc(C2CCN(C(=O)c3ccccc3)CC2)n1 | 246 to 248 °C
CC1(C)CC(=O)c2c(C(=O)Nc3ccsc3)c[nH]c2C1 | 217 to 218 °C
NC1CC(c2c[nH]c3ccc(CC4COC(=O)N4)cc23)C1 (stereo not given) | 95 to 100 °C
O=C(Nc1c(C(O)(C(F)(F)F)C(F)(F)F)ccc2ccccc12)c1cccc(C(F)(F)F)c1 | 187 to 188 °C
COC(=O)C1=C(C)NC(C)=C(C(=O)OCCCCCCCC#N)C1c1cccc([N+](=O)[O-])c1 (stereo not given) | 151 to 152 °C
COc1cccc(C23CCCC=C2C(=O)N(CCc2ccccc2)C(=O)C3)c1 (stereo not given) | 134 to 135 °C
Cc1ccc(S(=O)(=O)c2cc3c(c(S(=O)(=O)NCCc4ccccc4F)c2)CCCC3)cc1 | 55 to 60 °C

Structure (SMILES) | melting point
CC(=O)Nc1cccc(CNC(=O)[C@H]2N(C(=O)[C@@H](O)[C@H](Cc3ccccc3)NC(=O)c3cccc(O)c3C)CSC2(C)C)c1 | 145 to 147 °C
CC(=O)Nc1ncc(SCC(=O)O)s1 | 210 °C
COC(=O)Cc1cc(Br)c(S)c(Br)c1 | 63.5 to 65 °C
COc1cc2c(cc1OC)CCCC(C(=O)N1CCN(Cc3cc(OC)c(OC)c(OC)c3)CC1COC(C)=O)=C2 (stereo not given) | 135 to 139 °C
CC(C)(C)C(=O)Cn1cncn1 | 62 to 64 °C
CC(C)Cc1nc2cc(C(c3cccc(Cl)c3)n3ccnc3)ccc2[nH]c1=O (stereo not given) | 210 °C
Cc1ccccc1Nc1nc(Cl)nc2c(C)cccc12 | 125 to 126 °C
Cc1ccc(N)c(C(=O)NCCC(C)n2ccnc2)c1 (stereo not given) | 128 to 130 °C
CN1CCOc2ccc(N)cc2C1=O | 165 °C
CNC(=O)[C@H](NC(=O)c1ccc(F)cc1C(F)(F)F)[C@@H](CNC(C)=O)c1ccccc1 (racemic) | 199 °C
CON(c1ccc(C#N)cc1Cl)S(=O)(=O)c1ccc(C)cc1 | 145 to 147 °C
CC(COc1ccc(CC2SC(=O)NC2=O)cc1)NCC(O)CSc1ccccc1 (stereo not given) | 176 to 177 °C
Cc1ccc(-c2ccc(C(=O)Nc3cc4ncc(CN5CCCC5)cc4cc3C)cc2F)cc1 | 175 to 178 °C
CCNCCCN1c2ccccc2N(C)C(=O)c2c(C)cc(C)nc21 | 101 to 103 °C
O=C1N(Cc2ccc(C(F)(F)F)o2)c2ccccc2C12COc1cc3c(cc12)OCO3 (stereo not given) | 103 to 105 °C
O=C(O)c1c(Cc2cc3c(cc2Cl)OCO3)c(-c2cccs2)nn1CC1CCCC(C(=O)O)C1 (stereo not given) | > 260 °C
O=C1CN=C(c2ccccc2)O1 | 83 to 86 °C
O=C(O)Cn1cccc(O)c1=O | 203 to 205 °C
Nc1nc2ccc(S(=O)(=O)n3c(CCC(=O)O)cc4cc(Cl)ccc43)cc2s1 | 250 to 255 °C
COc1cc(Nc2c(C#N)cnc3cc(I)ccc23)c(Cl)cc1Cl | 243 to 245 °C
CCOP(=O)(Cc1ccc(NC(=O)/C=C/c2c(C)noc2-c2ccccc2)cc1)OCC | 155 to 156 °C
CC(=O)Nc1cccc(-c2ccc3nc(-c4cccnc4N)n(-c4ccc(CNS(=O)(=O)c5ccccc5)cc4)c3n2)c1 | 180 to 182 °C
COC(=O)c1csc(-c2snnc2-c2ccccc2)n1 | 124 °C
CC(CC(=O)c1ccc(Br)cc1)C(=O)N1CCCC1C(=O)O (stereo not given) | 136 to 138 °C
N#CCNC(=O)c1ccc([N+](=O)[O-])cc1 | 147 to 149 °C
